Measurements published in patent publication US11254686B1 (Corvus Pharmaceuticals, Inc., priority 2017, dated 2022).

Experiments:
[1] = target: adenosine A2B receptor (Homo sapiens (Human), UniProt P29275); experiment: Adenosine receptor activity assay (Table 1), A2B activity; format: biochemical; details: for IC50: read-out: Ave A2B cAMP IC50
[2] = target: adenosine A2A receptor (Homo sapiens (Human), UniProt P29274); experiment: Adenosine receptor activity assay (Table 1), A2A activity; format: biochemical; details: read-out: Ave A2A cAMP IC50
[3] = A2A activity to the A2B activity, A2A/A2B
[4] = A2A activity to A2B activity (A2A/A2B)

adenosine A2A receptor, sequence (P29274 whole entry): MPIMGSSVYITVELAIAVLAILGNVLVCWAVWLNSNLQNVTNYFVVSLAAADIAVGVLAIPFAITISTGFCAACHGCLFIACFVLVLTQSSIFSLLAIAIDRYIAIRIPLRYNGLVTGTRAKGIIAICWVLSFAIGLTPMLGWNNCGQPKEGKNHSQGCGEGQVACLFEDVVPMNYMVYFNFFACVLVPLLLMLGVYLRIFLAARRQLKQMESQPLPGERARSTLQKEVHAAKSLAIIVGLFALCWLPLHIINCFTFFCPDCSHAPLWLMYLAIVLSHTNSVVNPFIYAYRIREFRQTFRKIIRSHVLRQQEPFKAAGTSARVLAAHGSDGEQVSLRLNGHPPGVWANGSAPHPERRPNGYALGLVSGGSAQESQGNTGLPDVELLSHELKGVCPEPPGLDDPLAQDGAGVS
adenosine A2B receptor, sequence (P29275 whole entry): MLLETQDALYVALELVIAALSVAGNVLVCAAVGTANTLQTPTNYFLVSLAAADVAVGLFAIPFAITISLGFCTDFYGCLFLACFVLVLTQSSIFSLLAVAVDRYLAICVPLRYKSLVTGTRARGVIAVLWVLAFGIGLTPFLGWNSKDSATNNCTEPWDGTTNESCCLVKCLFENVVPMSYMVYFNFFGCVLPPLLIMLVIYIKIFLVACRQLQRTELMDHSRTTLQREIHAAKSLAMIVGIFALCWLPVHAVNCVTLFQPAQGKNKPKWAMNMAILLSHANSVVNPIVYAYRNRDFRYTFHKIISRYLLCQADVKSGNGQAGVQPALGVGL

Ratio [1, 3] | IC50 [1] [nM] | IC50 [2] [nM] | Ratio [1, 4] | SMILES
12.33 | 10 to 50 | > 500 | – | C[C@H](Nc1nc(C(=O)NCCNS(C)(=O)=O)c2sccc2n1)c1cncc(F)c1 [Example Z538, (S)-2-((1-(5-Fluoropyridin-3-yl)ethyl)amino)-N-(2-(methylsulfonamido)ethyl)thieno[3,2-d]pyrimidine-4-carboxamide]
– | 10 to 50 | 100 to 500 | 8.53 | C[C@@H]1CCN(C(=O)c2nc(N[C@@H](C)c3ccccn3)nc3cc(N)sc23)C1 [Example Z206, (6-Amino-2-(((S)-1-(pyridin-2-yl)ethyl)amino)thieno[3,2-d]pyrimidin-4-yl)((R)-3-methylpyrrolidin-1-yl)methanone]
– | 10 to 50 | > 500 | 22.37 | CC1(O)CN(C(=O)c2nc(NCc3cncc(F)c3)nc3ccsc23)C1 [Example Z98, (2-(((5-Fluoropyridin-3-yl)methyl)amino)thieno[3,2-d]pyrimidin-4-yl)(3-hydroxy-3-methylazetidin-1-yl)methanone]
9.62 | 50 to 100 | > 500 | – | C[C@H](Nc1nc(C(=O)NCCc2cccc(C#N)c2)c2sccc2n1)c1cncc(F)c1 [Example Z445, (S)—N-(3-Cyanophenethyl)-2-((1-(5-fluoropyridin-3-yl)ethyl)amino)thieno[3,2-d]pyrimidine-4-carboxamide]
– | 100 to 500 | 100 to 500 | 2.95 | C[C@H](Nc1nc(C(=O)NCCS(C)(=O)=O)c2sccc2n1)c1ccccn1 [Example Z215, (S)—N-(2-(Methylsulfonyl)ethyl)-2-((1-(pyridin-2-yl)ethyl)amino)thieno[3,2-d]pyrimidine-4-carboxamide]
– | 100 to 500 | > 500 | 34.17 | C[C@@H](O)CNC(=O)c1nc(NCc2cncc(C(F)(F)F)c2)nc2ccsc12 [Example Z266, (R)—N-(2-Hydroxypropyl)-2-(((5-(trifluoromethyl)pyridin-3-yl)methyl)amino)thieno[3,2-d]pyrimidine-4-carboxamide]
– | 50 to 100 | > 500 | 18.83 | O=C(c1nc(NCc2cnccn2)nc2ccsc12)N1CCC1 [Example Z155, Azetidin-1-yl(2-((pyrazin-2-ylmethyl)amino)thieno[3,2-d]pyrimidin-4-yl)methanone]
– | > 500 | > 500 | 7.49 | CN(C(=O)c1nc(NCc2cncc(F)c2)nc2ccsc12)C1CCC(C)(C)C1 (stereo not shown) [Example Z22, N-(3,3-Dimethylcyclopentyl)-2-(((5-fluoropyridin-3-yl)methyl)amino)-N-methylthieno[3,2-d]pyrimidine-4-carboxamide]
– | 10 to 50 | 100 to 500 | – | COCC(Nc1nc(C(=O)N2CCCC2)c2sccc2n1)c1cccnc1 (stereo not shown) [Example Z127, (2-((2-Methoxy-1-(pyridin-3-yl)ethyl)amino)thieno[3,2-d]pyrimidin-4-yl)(pyrrolidin-1-yl)methanone]
– | 50 to 100 | 100 to 500 | 1.41 | COc1ccc(CNC(=O)c2nc(N[C@@H](C)c3ccncc3)nc3ccsc23)cn1 [Example Z345, (S)—N-((6-Methoxypyridin-3-yl)methyl)-2-((1-(pyridin-4-yl)ethyl)amino)thieno[3,2-d]pyrimidine-4-carboxamide]
– | > 500 | > 500 | 14.43 | O=C(c1nc(NCc2cncc(F)c2)nc2ccsc12)N1CCNC1 [Example Z149, (2-(((5-Fluoropyridin-3-yl)methyl)amino)thieno[3,2-d]pyrimidin-4-yl)(imidazolidin-1-yl)methanone]
– | 50 to 100 | 100 to 500 | 2.02 | O=C(NCc1ccccn1)c1nc(NCc2ccccn2)nc2ccsc12 [Example Z78, N-(Pyridin-2-ylmethyl)-2-((pyridin-2-ylmethyl)amino)thieno[3,2-d]pyrimidine-4-carboxamide]
17.90 | 50 to 100 | > 500 | – | C[C@H](Nc1nc(C(=O)NCCc2ccc(N)cc2)c2sccc2n1)c1cncc(F)c1 [Example Z493, (S)—N-(4-Aminophenethyl)-2-((1-(5-fluoropyridin-3-yl)ethyl)amino)thieno[3,2-d]pyrimidine-4-carboxamide]
2.34 | 100 to 500 | > 500 | – | C[C@H](Nc1nc(C(=O)N2CCN(C(=O)OC(C)(C)C)C2)c2sccc2n1)c1cncc(F)c1 [Example Z584, tert-Butyl (S)-3-(2-((1-(5-fluoropyridin-3-yl)ethyl)amino)thieno[3,2-d]pyrimidine-4-carbonyl)imidazolidine-1-carboxylate]
– | 50 to 100 | 100 to 500 | 3.66 | COC[C@@H](Nc1nc(C(=O)NC[C@@H](C)O)c2sccc2n1)c1cccnc1 [Example Z321, N—((R)-2-Hydroxypropyl)-2-(((S)-2-methoxy-1-(pyridin-3-yl)ethyl)amino)thieno[3,2-d]pyrimidine-4-carboxamide]
10.26 | > 500 | > 500 | – | C[C@H](Nc1nc(C(=O)NCCN)c2sccc2n1)c1cncc(F)c1 [Example Z536, (S)—N-(2-Aminoethyl)-2-((1-(5-fluoropyridin-3-yl)ethyl)amino)thieno[3,2-d]pyrimidine-4-carboxamide]
– | 100 to 500 | 100 to 500 | – | C[C@H](Nc1nc(C(=O)NC2CN(C(=O)C(C)(C)C)C2)c2sccc2n1)c1cncc(F)c1 [Example Z545, (S)-2-((1-(5-Fluoropyridin-3-yl)ethyl)amino)-N-(1-pivaloylazetidin-3-yl)thieno[3,2-d]pyrimidine-4-carboxamide]
– | 10 to 50 | 100 to 500 | – | COCCNC(=O)c1nc(NCc2cncc(F)c2)nc2ccsc12 [Example Z146, 2-(((5-Fluoropyridin-3-yl)methyl)amino)-N-(2-methoxyethyl)thieno[3,2-d]pyrimidine-4-carboxamide]
6.39 | > 500 | > 500 | – | C[C@H](Nc1nc(C(=O)N2CCN(C(=O)C(C)(C)C)C2)c2sccc2n1)c1cncc(F)c1 [Example Z565, (S)-1-(3-(2-((1-(5-Fluoropyridin-3-yl)ethyl)amino)thieno[3,2-d]pyrimidine-4-carbonyl)imidazolidin-1-yl)-2,2-dimethylpropan-1-one]
– | > 500 | > 500 | 1.00 | O=C(NCc1cccnn1)c1nc(NCc2cccnn2)nc2ccsc12 [Example Z35, N-(Pyridazin-3-ylmethyl)-2-((pyridazin-3-ylmethyl)amino)thieno[3,2-d]pyrimidine-4-carboxamide]
– | > 500 | > 500 | 6.69 | CC(=O)N[C@@H]1CCN(C(=O)c2nc(N[C@@H](C)c3ccccn3)nc3ccsc23)C1 [Example Z317, N—((R)-1-(2-(((S)-1-(Pyridin-2-yl)ethyl)amino)thieno[3,2-d]pyrimidine-4-carbonyl)pyrrolidin-3-yl)acetamide]
– | 100 to 500 | > 500 | 21.05 | O=C(c1nc(NCc2ccccc2)nc2ccsc12)N1CC[C@H](O)C1 [Example Z40, (S)-(2-(Benzylamino)thieno[3,2-d]pyrimidin-4-yl)(3-hydroxypyrrolidin-1-yl)methanone]
– | 100 to 500 | > 500 | 1.50 | C[C@H](NC(=O)c1nc(N[C@@H](C)c2ccncc2)nc2ccsc12)c1ccncc1 [Example Z338, N—((S)-1-(Pyridin-4-yl)ethyl)-2-(((S)-1-(pyridin-4-yl)ethyl)amino)thieno[3,2-d]pyrimidine-4-carboxamide]
– | > 500 | > 500 | 1.00 | Cc1cncc(CNC(=O)c2nc(NCc3cncc(C)c3)nc3ccsc23)c1 [Example Z45, N-((5-Methylpyridin-3-yl)methyl)-2-(((5-methylpyridin-3-yl)methyl)amino)thieno[3,2-d]pyrimidine-4-carboxamide]
3.10 | > 500 | > 500 | – | C[C@H](Nc1nc(C(=O)N2CCN(C(=O)OCC(C)(C)C)C2)c2sccc2n1)c1cncc(F)c1 [Example Z566, Neopentyl (S)-3-(2-((1-(5-fluoropyridin-3-yl)ethyl)amino)thieno[3,2-d]pyrimidine-4-carbonyl)imidazolidine-1-carboxylate]
– | 10 to 50 | 100 to 500 | 13.39 | O=C(c1nc(NCc2cccc(Cl)c2)nc2ccsc12)N1CCCC1 [Example Z120, (2-((3-Chlorobenzyl)amino)thieno[3,2-d]pyrimidin-4-yl)(pyrrolidin-1-yl)methanone]
– | 100 to 500 | > 500 | 8.34 | C[C@H](Nc1nc(C(=O)N[C@H](C)c2cccnc2)c2sccc2n1)c1cccnc1 [Example Z30, N—((R)-1-(Pyridin-3-yl)ethyl)-2-(((S)-1-(pyridin-3-yl)ethyl)amino)thieno[3,2-d]pyrimidine-4-carboxamide]
2.73 | 50 to 100 | 100 to 500 | – | Cc1cc2nc(N[C@@H](C)c3cccnc3)nc(C(=O)NCc3ccccn3)c2s1 [Example Z457, (S)-6-Methyl-N-(pyridin-2-ylmethyl)-2-((1-(pyridin-3-yl)ethyl)amino)thieno[3,2-d]pyrimidine-4-carboxamide]
– | 10 to 50 | 100 to 500 | – | CCC(Nc1nc(C(=O)N2CCCC2)c2sccc2n1)c1cccnc1 (stereo not shown) [Example Z25, (2-((1-(Pyridin-3-yl)propyl)amino)thieno[3,2-d]pyrimidin-4-yl)(pyrrolidin-1-yl)methanone]
– | 100 to 500 | 100 to 500 | – | CC(=O)NC1CN(C(=O)c2nc(N[C@@H](C)c3ccccn3)nc3ccsc23)C1 [Example Z533, (S)—N-(1-(2-((1-(pyridin-2-yl)ethyl)amino)thieno[3,2-d]pyrimidine-4-carbonyl)azetidin-3-yl)acetamide]
